Results reported in patent US8470785B2, “Method for treating ocular cancer” (St. Jude Children's Research Hospital, priority 2006, dated 2013).
Like-named read-outs stand apart in the source and are kept apart here. Values belong to the compound of their own block, whether it stands above or below them. Ends that are not written are not given here.

Columns and labels:
HDM2 = HDM2 (Homo sapiens, UniProt Q00987); conditions: literature; cited from earlier work
retinoblastoma cells = conditions: for p53 response: topotecan at LC50 for 1 hour, nutlin-3 treatment
Mdm2^Lox/Lox MEFs = assay: Clonal analysis in Mdm2-deficient MEFs (Table 8)
[1] = system: p53^LSL MEFs null for Mdm2 and/or MdmX; assay: MTT growth/viability assay in p53^LSL MEFs
MDM2, p53 and p21 levels = assay: Immunoblot analysis of p53 pathway induction; conditions: 4 μM nutlin-3; Weril, Y79, primary retinoblasts; all cells except 911 cells
Y79 cells = assay: Retinoblastoma cell viability, Y79 cells; format: cell-based, human; conditions: 72 hours, total racemic drug; read-out: LC50 (the source's name)
Description: These studies were extended to retinoblastoma cells. […] MDM2, p53 and p21 levels were induced in all cells except for the 911 cells in which p53 was inactivated by the large E1B protein.

Weril and Y79 cells = conditions: lentivirus control-infected cells
[2] = system: SJRBL8 retinoblastoma cell line; assay: Retinoblastoma cell viability, p53-deficient SJRBL8 cells; conditions: 10 μM to 1 nM, 72 hours
[3] = cited from earlier work
[4] = target: MDM2 (amino acid residues 1-188) (Homo sapiens, UniProt Q00987); assay: Fluorescence polarization p53 peptide binding/competition assay, MDM2
Chain of MDM2 (amino acid residues 1-188) (Q00987 1-188): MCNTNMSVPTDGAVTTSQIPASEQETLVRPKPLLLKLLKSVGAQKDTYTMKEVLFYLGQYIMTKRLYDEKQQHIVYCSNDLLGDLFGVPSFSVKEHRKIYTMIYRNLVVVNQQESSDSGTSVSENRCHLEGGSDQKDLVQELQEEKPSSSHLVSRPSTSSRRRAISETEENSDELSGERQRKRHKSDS

[5] = target: T1, MDMX (amino acid residues 1-185) (Homo sapiens, UniProt O15151); assay: Fluorescence polarization p53 peptide binding/competition assay, MDMX
T1 sequence (O15151 1-185): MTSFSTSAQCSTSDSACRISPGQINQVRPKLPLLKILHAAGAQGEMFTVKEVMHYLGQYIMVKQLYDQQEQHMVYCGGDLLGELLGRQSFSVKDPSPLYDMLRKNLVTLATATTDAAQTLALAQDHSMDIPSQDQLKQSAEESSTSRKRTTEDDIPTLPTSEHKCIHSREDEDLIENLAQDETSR

Chain of HDM2 (Q00987 whole entry): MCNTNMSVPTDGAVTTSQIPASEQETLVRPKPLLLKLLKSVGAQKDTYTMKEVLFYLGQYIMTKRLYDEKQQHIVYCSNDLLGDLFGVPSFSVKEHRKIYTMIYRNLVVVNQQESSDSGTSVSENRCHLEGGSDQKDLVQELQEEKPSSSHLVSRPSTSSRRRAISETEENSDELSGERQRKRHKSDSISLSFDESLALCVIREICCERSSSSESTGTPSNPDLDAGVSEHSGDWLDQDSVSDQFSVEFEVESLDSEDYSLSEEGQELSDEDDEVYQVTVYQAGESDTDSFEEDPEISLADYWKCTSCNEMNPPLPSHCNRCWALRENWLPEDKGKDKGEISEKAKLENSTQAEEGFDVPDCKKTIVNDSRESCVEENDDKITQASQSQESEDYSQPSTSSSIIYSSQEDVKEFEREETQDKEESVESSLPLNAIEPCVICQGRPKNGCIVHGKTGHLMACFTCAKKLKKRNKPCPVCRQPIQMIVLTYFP

Compound: O=C(O)COc1ccc(C(=O)C=Cc2ccc(Cl)c(Cl)c2)cc1 [Trial B-1, {4-[3-(3,4-dichloro-phenyl)-acryloyl]-phenoxy}-acetic acid]
affinity / inhibition of p53/HDM2 complex (HDM2): high micromolar affinity

Compound: COc1ccc(C2=N[C@@H](c3ccc(Cl)cc3)[C@@H](c3ccc(Cl)cc3)N2C(=O)N2CCNC(=O)C2)c(OC(C)C)c1 [nutlin-3]
effect of nutlin-3 alone (retinoblastoma cells; 10 nM): ineffective alone
p53 response (retinoblastoma cells): induced a p53 response
MdmX rescue of the loss of Mdm2 in MEFs (Mdm2^Lox/Lox MEFs; 1.25 μM or 5 μM racemic nutlin-3): blocked
number of cells per clone (Mdm2^Lox/Lox MEFs; GFP virus, 1.25 μM racemic nutlin-3, Day 2): 1.0 ± 0^
number of cells per clone (Mdm2^Lox/Lox MEFs; GFP virus, 1.25 μM racemic nutlin-3, Day 3): 1.5 ± 0.4
number of cells per clone (Mdm2^Lox/Lox MEFs; GFP virus, 1.25 μM racemic nutlin-3, Day 4): 2.1 ± 0.7
number of cells per clone (Mdm2^Lox/Lox MEFs; GFP virus, 5.0 μM racemic nutlin-3, Day 2): 1.1 ± 0.2
number of cells per clone (Mdm2^Lox/Lox MEFs; GFP virus, 5.0 μM racemic nutlin-3, Day 3): 1.5 ± 0.4
number of cells per clone (Mdm2^Lox/Lox MEFs; Mdm2-GFP virus, 1.25 μM racemic nutlin-3, Day 2): 3.1 ± 1.5
number of cells per clone (Mdm2^Lox/Lox MEFs; Mdm2-GFP virus, 1.25 μM racemic nutlin-3, Day 3): 6.6 ± 5.2
number of cells per clone (Mdm2^Lox/Lox MEFs; Mdm2-GFP virus, 1.25 μM racemic nutlin-3, Day 4): 10.0 ± 7.4
number of cells per clone (Mdm2^Lox/Lox MEFs; Mdm2-GFP virus, 1.25 μM racemic nutlin-3, Day 5): 12.9 ± 8.1
number of cells per clone (Mdm2^Lox/Lox MEFs; Mdm2-GFP virus, 1.25 μM racemic nutlin-3, Day 6): 14.5 ± 9.3
number of cells per clone (Mdm2^Lox/Lox MEFs; Mdm2-GFP virus, 5.0 μM racemic nutlin-3, Day 2): 3.0 ± 2.2
number of cells per clone (Mdm2^Lox/Lox MEFs; Mdm2-GFP virus, 5.0 μM racemic nutlin-3, Day 3): 3.3 ± 1.4
number of cells per clone (Mdm2^Lox/Lox MEFs; Mdm2-GFP virus, 5.0 μM racemic nutlin-3, Day 4): 3.9 ± 2.1
number of cells per clone (Mdm2^Lox/Lox MEFs; Mdm2-GFP virus, 5.0 μM racemic nutlin-3, Day 5): 3.1 ± 1.7
number of cells per clone (Mdm2^Lox/Lox MEFs; Mdm2-GFP virus, 5.0 μM racemic nutlin-3, Day 6): 2.8 ± 2.0
number of cells per clone (Mdm2^Lox/Lox MEFs; MdmX-GFP virus, 1.25 μM racemic nutlin-3, Day 2): 1.1 ± 0.2
number of cells per clone (Mdm2^Lox/Lox MEFs; MdmX-GFP virus, 1.25 μM racemic nutlin-3, Day 3): 1.9 ± 0.6
number of cells per clone (Mdm2^Lox/Lox MEFs; MdmX-GFP virus, 1.25 μM racemic nutlin-3, Day 4): 2.8 ± 1.7
number of cells per clone (Mdm2^Lox/Lox MEFs; MdmX-GFP virus, 1.25 μM racemic nutlin-3, Day 5): 3.4 ± 2.2
number of cells per clone (Mdm2^Lox/Lox MEFs; MdmX-GFP virus, 1.25 μM racemic nutlin-3, Day 6): 2.1 ± 1.9
number of cells per clone (Mdm2^Lox/Lox MEFs; MdmX-GFP virus, 5.0 μM racemic nutlin-3, Day 2): 1.2 ± 0.4
number of cells per clone (Mdm2^Lox/Lox MEFs; MdmX-GFP virus, 5.0 μM racemic nutlin-3, Day 3): 1.1 ± 0.1
number of cells per clone (Mdm2^Lox/Lox MEFs; MdmX-GFP virus, 5.0 μM racemic nutlin-3, Day 4): 1.3 ± 0.2
number of cells per clone (Mdm2^Lox/Lox MEFs; MdmX-GFP virus, 5.0 μM racemic nutlin-3, Day 5): 1.0 ± 0^
sensitivity of MEFs to nutlin-3 ([1]; MdmX^+/− MEFs after Cre): sensitive
sensitivity of MEFs to nutlin-3 ([1]; MdmX^−/− MEFs after Cre): insensitive
MDM2, p53 and p21 levels (MDM2, p53 and p21 levels): induced
CC50 (Y79 cells): 2000 nM
response to nutlin-3 with MDMX cDNA (Weril cells; Weril cells, MDMX cDNA): more resistant
response to nutlin-3 with MDMX siRNA (Weril cells; Weril cells, MDMX siRNA): sensitized
CC50 (Weril cells; read-out: LC50 (50% lethal concentration), 72 hours, total racemic drug): 700 nM
CC50 (Weril cells; read-out: LC50, Weril cells transfected with control siRNA): 600 nM
CC50 (Weril cells; read-out: LC50, Weril cells transfected with p53 siRNA): 10000 nM
proliferation of control-infected cells (Weril and Y79 cells): inhibited the proliferation
viability [2]: no decrease in viability at any concentration tested

Compound: COc1ccc(C2=N[C@@H](c3ccc(Cl)cc3)[C@@H](c3ccc(Cl)cc3)N2C(=O)N2CCNC(=O)C2)c(OC(C)C)c1 [nutlin-3a]
penetration into the vitreous ([3]; oral and intravenous formulations): poor penetration into the vitreous

Compound: CC[C@@]1(O)C(=O)OCc2c1cc1n(c2=O)Cc2cc3c(CN(C)C)c(O)ccc3nc2-1 [topotecan, Topotecan]
p53 response (retinoblastoma cells): induced a p53 response
intraocular penetration ([3]; systemic administration, murine models of retinoblastoma): good intraocular penetration

Compound: FMDYWEGL [SEQ ID NO:4]
affinity / inhibition of p53/HDM2 complex (HDM2): micromolar affinity

Compound: MPRFMDYWEGLN [SEQ ID NO:2]
affinity / inhibition of p53/HDM2 complex (HDM2): sub-micromolar affinity
fold increase in potency compared to wild-type p53-derived peptide (SEQ ID NO:3) (HDM2): 28 fold

MDM2 binding [4]: no MDM2 or MDMX binding
MDMX binding [5]: no MDM2 or MDMX binding
Compound: NH2-Gly-Ser-Gly-Ser-Ser-Gln-Glu-Thr-Ala-Ser-Asp-Leu-Ala-Lys-Leu-Ala-Pro-Glu-Asn-OH (H-GSGSSQETASDLAKLAPEN-OH) [p53 mutant]

Compound: chlorofusin
affinity / inhibition of p53/HDM2 complex (HDM2): micromolar inhibitor
